Measured values as given in patent US20250228858A1, “ANTI-CANCER COMBINATION THERAPY” (Boehringer Ingelheim International GmbH, priority 2023, published 2025).
“And” between values parts separate entries of the source, which are not always exact repeats. Equal values may be shown once.

Key:
Format in all cases: in vivo, NMRI-Foxn1^nu mice
[1] = test system: HER2-overexpressing human breast cancer cell line SUM190PT; experiment: SUM190PT subcutaneous xenograft, zongertinib with T-DM1; conditions: day 21, alone or combined; for stable disease: number of tumors out of 8, zongertinib 20 mg/kg qdx21, T-DM1 3 mg/kg q21dx1; for Regressions >30%: tumors regressed/total (partial response); for Regressions >30% / TGI: zongertinib 20 mg/kg qdx21 p.o., T-DM1 3 mg/kg q21dx1 i.v.
Method: The study is performed in human breast cancer cell line SUM190PT grown as subcutaneous xenografts in NMRI-Foxn1^nu mice. Day 1 was the first day, day 21 the last day of treatment and final day of analysis.
SUM190PT is a HER2-overexpressing human breast cancer cell line that can be obtained from Asterand Bioscience (BioIVT). Cells are cultured in T75, T175 and 5-Layer tissue culture flasks at 37° C. and 5% CO2. The medium used is ACL-4 (Thermo Fisher Scientific #041-95574M Custom Batch) supplemented with 0.5% bovine serum albumin (JHR 85-041-025), 0.02 mg/ml insulin (Sigma I5500), 0.01 mg/ml transferrin (Sigma T-2252), 25 nM sodium selenite (Sigma S9133), 50 nM Hydrocortisone (Sigma H-4001), 1 ng/ml Epidermal Growth Factor (unfiltered, Sigma E4127), 0.01 mM ethanolamine (Sigma E-0135), 0.01 mM phosphorylethanolamine (Medchem HY-N5034), 100 pM triiodothyronine (Sigma T5516), 0.5 mM sodium pyruvate (Sigma S8636) and 2 mM L-glutamine (Gibco 11539876). Cultures are split once weekly with a ratio of 1:2.
(§1) To establish subcutaneous tumors, SUM190PT cells are harvested by centrifugation, washed and resuspended in PBS+2.5% FCS+50% Matrigel (Corning #2165001) at 5×10^7 cells/ml. 100 μl cell suspension containing 5×10^6 cells is injected subcutaneously into the right flank of the mice (1 site per mouse). Mice are randomly distributed between the treatment and the vehicle control group (13 days after cell injection) when tumors are well established and have reached volumes of 100 to 180 mm^3.
Tumor volumes and side effects are monitored as described in Example 1 (see paragraph 1.1.6), except that control animals were analysed when the median tumor volume of the group reaches a size of approximately 700 mm^3.
The statistical evaluation of the tumor volume and the body weight is conducted on day 21 (last day of the study). Apart from this, statistical analysis was performed as described in Example 1 (see paragraph 1.1.7), with no evaluation of tumor growth after stop of treatment.

[2] = test system: HER2 Exon20^YVMA-mutant human non-small cell lung cancer (NSCLC) cell line PC-9_YVMA-5; experiment: PC-9_YVMA-5 subcutaneous xenograft, zongertinib with T-DM1; conditions: alone or combined; for effect on tumor growth (median tumor volumes over time): T-DM1 5 mg/kg once weekly (q7d), zongertinib 5 mg/kg/day; for TGI: day 19; for TGI / tumors regressed completely / Regressions >30%: zongertinib 5 mg/kg bid, T-DM1 5 mg/kg q7d; for tumors regressed completely: number of tumors, 8 per group; for Regressions >30%: tumors regressed/total (Table 6, FIG. 6 waterfall day 24)
Method: The study is performed in human non-small cell lung cancer (NSCLC) cell line PC-9_YVMA-5 (PC-9 YVMA in short) grown as subcutaneous xenografts in NMRI-Foxn1^nu mice. Day 1 was the first day, day 21 the last day of treatment and day 24 the final day of analysis.
PC-9 is a non-small cell lung cancer cell line that can be obtained from the European Collection of Authenticated Cell Cultures (ECACC #90071810) and expresses an EGFR DEL19 mutation. To generate the PC-9_YVMA-5 clone driven by HER2 YVMA, parental PC-9 cells are ectopically transduced to express the HER2 YVMA isoform and the EGFR alleles (mutant and wild type) are deleted using CRISPR technology. Cells are cultured in T175 tissue culture flasks at 37° C. and 5% CO2. The medium used is RPMI 1640 supplemented with 10% FCS (Thermo Scientific #SH 30071.03), 0.5 μg/ml Puromycin (Gibco #A1113803) and 0.6 mg/ml Geneticin (Gibco #10131035). Cultures are split twice weekly with a ratio of 1:5-1:6.
as §1, with “tumors, PC-9_YVMA-5” for “tumors, SUM190PT”, “in PBS+5% FCS” for “in PBS+2.5% FCS+50% Matrigel (Corning #2165001)”, “group (12” for “group (13”, “of 90” for “of 100”, “to 149” for “to 180”
Mice in the control group are treated with vehicle, i.e.: • (i) 0.5% Natrosol, administered twice daily for the duration of the treatment intragastrally by gavage needle with a volume of 10 ml/kg body weight; and • (ii) saline (0.9%), administered once weekly intravenously into the tail vein with a volume of 5 ml/kg.
Tumor volumes and side effects are monitored as described in Example 1 (see paragraph 1.1.6), except that control animals are sacrificed when the median tumor volume of the group reaches a size of approximately 370 mm^3.
The statistical evaluation of the tumor volume and the body weight is conducted on day 19 (last day of the controls). Apart from this, statistical analysis was performed as described in Example 1 (see paragraph 1.1.7), with no evaluation of tumor growth after stop of treatment.

[3] = test system: HER2-overexpressing human esophagus cancer cell line OE19; experiment: OE19 subcutaneous xenograft, zongertinib with trastuzumab; conditions: day 14; for Regressions >30%: tumors regressed/total (partial response)
Method: The study is performed in human esophagus cancer cell line OE19 grown as subcutaneous xenografts in NMRI-Foxn1^nu mice. Day 1 was the first day, day 14 the last day of treatment and final day of analysis.
OE19 is obtained and cultured as described in Example 3 (see paragraph 3.1.2).
Mice in the control group are treated with vehicle, i.e.: • (iii) 0.5% Natrosol, administered once daily for the duration of the treatment intragastrally by gavage needle with a volume of 10 ml/kg body weight; and • (iv) saline (0.9%), administered once weekly intraperitoneally with a volume of 10 ml/kg.
Tumor volumes and side effects are monitored as described in Example 1 (see paragraph 1.1.6), except that control animals are sacrificed when the median tumor volume of the group reaches a size of approximately 640 mm^3.
The statistical evaluation of the tumor volume and the body weight is conducted on day 14 (last day of the study). Apart from this, statistical analysis was performed as described in Example 1 (see paragraph 1.1.7), with no evaluation of tumor growth after stop of treatment.

[4] = zongertinib 20 mg/kg qdx14 p.o., trastuzumab 20 mg/kg q7dx2 i.p., alone or combined

Compound	stable disease [1]	Regressions >30% [1]	TGI [1] [%]	effect on tumor growth (median tumor volumes over time) [2]	TGI [2] [%]	tumors regressed completely [2]	Regressions >30% [2]	Regressions >30% ([2]; listed as zongertinib)	stable disease ([3]; number of tumors out of 8, zongertinib 20 mg/kg qdx14, trastuzumab 20 mg/kg q7dx2, monotherapies)	Regressions >30% [3, 4]	Regressions >30% ([3]; zongertinib 20 mg/kg qdx14 p.o., trastuzumab 20 mg/kg q7dx2 i.p., alone or combined, listed as zongertinib)	TGI [3, 4] [%]
C=CC(=O)NC1CCN(c2ncc3ncnc(Nc4ccc(Oc5ccc6c(c5)ncn6C)c(C)c4)c3n2)CC1 [Zongertinib, N-{1-[8-({3-methyl-4-[(1-methyl-1H-1,3-benzodiazol-5-yl)oxy]phenyl}amino)-[1,3]diazino [5,4-d]pyrimidin-2-yl]piperidin-4-yl}prop-2-enamide]	no stable disease	0/8	64	abolished tumor growth	110	none	4/8	4	no stable disease	0/8	no partial response	80
trastuzumab emtansine [T-DM1, reference compound]	3	0/8	90	abolished tumor growth	112	none	4 and 4/8					
